Measurements taken from patent publication US20010021697A1, “METHODS AND COMPOSITIONS FOR THE TREATMENT OF MAMMALIAN INFECTIONS EMPLOYING MEDICAMENTS COMPRISING HYMENOPTERA VENOM, PROTEINAGEOUS OR POLYPEPTIDE COMPONENTS THEREOF, OR ANALOGUES OF SUCH PROTEINACEOUS OR POLYPEPTIDE COMPONENTS” (priority 1987, published 2001).

Tests used:
[1] = system: E. coli; assay: Automated MIC assay (Sensititre) of antibiotics with and without HBV; type: cell-based; conditions: with vs without 4 ug/ml HBV
[2] = system: S. epidermidis; assay: as above; type: cell-based; conditions: with vs without 4 ug/ml HBV
[3] = system: Streptococcus faecalis; assay: as above; type: cell-based; conditions: Streptococcus faecalis strain 81-; with vs without 4 ug/ml HBV
[4] = system: S. aureus; assay: as above; type: cell-based; conditions: with vs without 4 ug/ml HBV
[5] = system: E. Coli strain No. G1108E; assay: Checkerboard titration synergy assay of natural melittin and analogue #6 with polymyxin B; type: cell-based; conditions: for synergistic activity with polymyxin B compared with natural melittin: E. coli, 10 ug peptide + 6 units polymyxin B
[6] = Relative activity of analogues with respect to native melittin; type: cell-based
Method: Also some of then analogues mentioned above were tested to determine their relative activities with respect to native melittin. The relative activity is calculated as follows: [formula]

[7] = system: E. coli G1108E; assay: Checkerboard titration synergy assay of melittin analogues with polymyxin B; type: cell-based; conditions: for relative in vitro activity, place in ascending order: 5 ug/ml peptide with 6 units/ml polymyxin B, delay time until mid-log phase (FIG. 26)
[8] = system: 30 random strains of bacteria; conditions: Sephadex G-50 purified melittin fraction; cited from earlier work
[9] = system: S. aureus; assay: Equivalent doses of melittin fraction and whole honeybee venom with and without kanamycin (growth curves); type: cell-based; conditions: for MEAN A660: doses of what is present: KANA = 2.5, MEL = 1.6, HBV = 2 (ug/ml)
[10] = S. aureus strain QC (printed 0C)
[11] = 0 hrs, doses of what is present: Polymyxin B 3 units, peptide 5 ug
[12] = 0 hrs, doses of what is present: Polymyxin B 6 units, peptide 10 ug
[13] = 2 hrs, doses of what is present: Polymyxin B 3 units, peptide 5 ug
[14] = 2 hrs, doses of what is present: Polymyxin B 6 units, peptide 10 ug
[15] = 4 hrs, doses of what is present: Polymyxin B 3 units, peptide 5 ug
[16] = 4 hrs, doses of what is present: Polymyxin B 6 units, peptide 10 ug
[17] = 6 hrs, doses of what is present: Polymyxin B 3 units, peptide 5 ug
[18] = 6 hrs, doses of what is present: Polymyxin B 6 units, peptide 10 ug
[19] = 8 hrs, doses of what is present: Polymyxin B 3 units, peptide 5 ug
[20] = 8 hrs, doses of what is present: Polymyxin B 6 units, peptide 10 ug
[21] = 12 hrs, doses of what is present: Polymyxin B 3 units, peptide 5 ug
[22] = 12 hrs, doses of what is present: Polymyxin B 6 units, peptide 10 ug

| Substance | effect of 4 ug/ml HBV on the MIC of the antibiotic ([2]; S. epidermidis strain 5905) | effect of 4 ug/ml HBV on the MIC of the antibiotic ([2]; S. epidermidis strain 5907) | effect of 4 ug/ml HBV on the MIC of the antibiotic ([2]; S. epidermidis strain 7905) | effect of 4 ug/ml HBV on the MIC of the antibiotic ([2]; S. epidermidis strain 7908) | effect of 4 ug/ml HBV on the MIC of the antibiotic ([2]; S. epidermidis strain 39817) | effect of 4 ug/ml HBV on the MIC of the antibiotic [3] | effect of 4 ug/ml HBV on the MIC of the antibiotic ([4]; S. aureus strain 51072) | effect of 4 ug/ml HBV on the MIC of the antibiotic [4, 10] | Average optical densities (OD660) [5, 11] | Average optical densities (OD660) [5, 12] | Average optical densities (OD660) [5, 13] | Average optical densities (OD660) [5, 14] | Average optical densities (OD660) [5, 15] | Average optical densities (OD660) [5, 16] | Average optical densities (OD660) [5, 17] | Average optical densities (OD660) [5, 18] | Average optical densities (OD660) [5, 19] | Average optical densities (OD660) [5, 20] | Average optical densities (OD660) [5, 21] | relative in vitro activity, place in ascending order [7] | further results |
| --- | --- | --- | --- | --- | --- | --- | --- | --- | --- | --- | --- | --- | --- | --- | --- | --- | --- | --- | --- | --- | --- |
| Gentamicin | − (A (−) indicates a MIC decrease of less than two dilution steps.) | − (A (−) indicates a MIC decrease of less than two dilution steps.) | − (A (−) indicates a MIC decrease of less than two dilution steps.) | + (A (+) indicates a MIC decrease greater than or equal to two dilution steps.) | + (A (+) indicates a MIC decrease greater than or equal to two dilution steps.) | − (A (−) indicates a MIC decrease of less than two dilution steps.) | +^ (A (+) indicates a MIC decrease greater than or equal to two dilution steps.) | +^ (A (+) indicates a MIC decrease greater than or equal to two dilution steps.) | – | – | – | – | – | – | – | – | – | – | – | – | effect of 4 ug/ml HBV on the MIC of the antibiotic ([1]; E. coli strain 1173): − (A (−) indicates a MIC decrease of less than two dilution steps.); effect of 4 ug/ml HBV on the MIC of the antibiotic ([1]; E. coli strain 4302): + (A (+) indicates a MIC decrease greater than or equal to two dilution steps.); effect of 4 ug/ml HBV on the MIC of the antibiotic ([1]; E. coli strain 19033): + (A (+) indicates a MIC decrease greater than or equal to two dilution steps.); effect of 4 ug/ml HBV on the MIC of the antibiotic ([1]; E. coli strain QC): + (A (+) indicates a MIC decrease greater than or equal to two dilution steps.) |
| H-Gly-Ile-Gly-Ala-Val-Leu-Lys-Val-Leu-Thr-Thr-Gly-Leu-Pro-Ala-Leu-Ile-Ser-Trp-Ile-Lys-Lys-Lys-Lys-Gln-Gln-NH2 (H-GIGAVLKVLTTGLPALISWIKKKKQQ-NH2) [Analogue #6] | – | – | – | – | – | – | – | – | .013 | .013 | .072 | .072 | .831 | .824 | 1.07 | 1.09 | 1.09 | 1.11 | 1.16 | 4 | Average optical densities (OD660) [5, 22]: 1.17; synergistic activity with polymyxin B compared with natural melittin [5]: At no time could a significant difference be detected; synergistic activity with polymyxin B compared with natural melittin ([5]; listed as Analogue No. 6): activity equivalent to natural melittin; difference between the specific activities of melittin versus analogue #6 ([5]; estimated from Table 11): less than 10%; Relative Activity [6]: 100% |
| Melittin (1-20) - Orn-Orn-Orn-Orn-Gln-Gln-NH2 [Analogue #2] | – | – | – | – | – | – | – | – | – | – | – | – | – | – | – | – | – | – | – | 6 | Relative Activity [6]: 200% |
| Melittin (1-20)-Lys-Arg-Lys-Arg-Gln-Gln-NH2. | – | – | – | – | – | – | – | – | .013 | .013 | .072 | .072 | .833 | .0827 | 1.10 | 1.09 | 1.11 | 1.10 | 1.18 | 2 | antibacterial activity [8]: potent antibacterial activity; Average optical densities (OD660) [5, 22]: 1.19; effect of the peptide alone on the growth of E. coli ([7]; used alone at 10 ug/ml or less): no effect; MEAN A660 ([9]; T0): 0.021; MEAN A660 ([9]; T2): 0.080; MEAN A660 ([9]; T4): 0.374; MEAN A660 ([9]; T6): 1.099; MEAN A660 ([9]; T8): 1.288; MEAN A660 ([9]; T12): 1.339; MEAN A660 ([9]; T24): 1.415; antibacterial activity of the melittin fraction compared with whole HBV, in combination with kanamycin ([9]; equivalent doses with equal doses of kanamycin (FIG. 15)): None of the optical densities at any time point on the two curves are significantly different; antibacterial activity of the melittin fraction compared with whole HBV ([9]; equivalent doses, without antibiotic (FIG. 14)): No significant differences |
| Penicillin | − (A (−) indicates a MIC decrease of less than two dilution steps.) | − (A (−) indicates a MIC decrease of less than two dilution steps.) | + (A (+) indicates a MIC decrease greater than or equal to two dilution steps.) | + (A (+) indicates a MIC decrease greater than or equal to two dilution steps.) | + (A (+) indicates a MIC decrease greater than or equal to two dilution steps.) | − (A (−) indicates a MIC decrease of less than two dilution steps.) | +^6 (A (+) indicates a MIC decrease greater than or equal to two dilution steps.) | −^5 (A (−) indicates a MIC decrease of less than two dilution steps.) | – | – | – | – | – | – | – | – | – | – | – | – | – |
| Venomycin | − (A (−) indicates a MIC decrease of less than two dilution steps.) | − (A (−) indicates a MIC decrease of less than two dilution steps.) | − (A (−) indicates a MIC decrease of less than two dilution steps.) | + (A (+) indicates a MIC decrease greater than or equal to two dilution steps.) | − (A (−) indicates a MIC decrease of less than two dilution steps.) | − (A (−) indicates a MIC decrease of less than two dilution steps.) | +^ (A (+) indicates a MIC decrease greater than or equal to two dilution steps.) | +^ (A (+) indicates a MIC decrease greater than or equal to two dilution steps.) | – | – | – | – | – | – | – | – | – | – | – | – | – |
